Measured values: ChEMBL document CHEMBL2169830, “Identification, synthesis, and biological evaluation of the metabolites of 3-amino-6-(3'-aminopropyl)-5H-indeno[1,2-c]isoquinoline-5,11-(6H)dione (AM6-36), a promising rexinoid lead compound for the development of cancer chemotherapeutic and chemopreventive agents” (J Med Chem, 2012)

How the values were obtained:
[1] = Drug metabolism in Sprague-Dawley rat assessed as 6-(3-Hydroxypropyl)-3-amino-5H-indeno[1,2- c]-isoquinoline-5,11(6H)dione level in mammary gland at 40 mg/kg, po administered 3 days; type: ADME, organism-based; design: dose 40 mg/kg, route oral; conditions: in vivo, 72 h
[2] = Cytotoxicity against human HEK293 cells assessed as cell survival at 50 uM relative to control; type: cell-based; conditions: read-out: Survival
Liver microsomes [3] = assay: Drug metabolism in human liver microsomes assessed as formation of 6-(3-hydroxypropyl)-3-amino-5H-indeno[1,2-c]-isoquinoline-5,11(6H)-dione at 1 uM after 60 mins in presence of NADPH and monoamine oxidase inhibitors clorgiline, pargyline; type: ADME, Microsome; conditions: 1 h
[4] = Drug metabolism in Sprague-Dawley rat assessed as N-[6-(3-Aminopropyl)-5,11-dioxo-6,11-dihydro-5H-indeno- [1,2-c]isoquinolin-3-yl]acetamide level in mammary gland at 40 mg/kg, po administered 3 days; type: ADME, organism-based; design: dose 40 mg/kg, route oral; conditions: in vivo, 72 h
[5] = Drug metabolism in Sprague-Dawley rat assessed as N-[6-(3-Hydroxypropyl)-5,11-dioxo-6,11-dihydro-5Hindeno[1,2-c]isoquinolin-3-yl]acetamide level in mammary gland at 40 mg/kg, po administered 3 days; type: ADME, organism-based; design: dose 40 mg/kg, route oral; conditions: in vivo, 72 h
Liver [6] = assay: Drug metabolism in Sprague-Dawley rat assessed as 3-Amino-6-(3-aminopropyl)-11-hydroxy-6,11-dihydro-5Hindeno[1,2-c]isoquinolin-5-one level in liver at 40 mg/kg, po administered 3 days; type: ADME, organism-based; design: dose 40 mg/kg, route oral; conditions: in vivo, 72 h
Serum [7] = assay: Drug metabolism in Sprague-Dawley rat assessed as 3-Amino-11-hydroxy-6-(3-hydroxypropyl)-6,11-dihydro-5Hindeno[1,2-c]isoquinolin-5-one level in serum at 40 mg/kg, po administered 3 days; type: ADME, organism-based; design: dose 40 mg/kg, route oral; conditions: in vivo, 72 h
Serum [8] = assay: Drug metabolism in Sprague-Dawley rat assessed as 3-Amino-6-(3-aminopropyl)-11-hydroxy-6,11-dihydro-5Hindeno[1,2-c]isoquinolin-5-one level in serum at 40 mg/kg, po administered 3 days; type: ADME, organism-based; design: dose 40 mg/kg, route oral; conditions: in vivo, 72 h
Liver [9] = assay: Drug metabolism in Sprague-Dawley rat assessed as N-[6-(3-Aminopropyl)-5,11-dioxo-6,11-dihydro-5H-indeno- [1,2-c]isoquinolin-3-yl]acetamide level in liver at 40 mg/kg, po administered 3 days; type: ADME, organism-based; design: dose 40 mg/kg, route oral; conditions: in vivo, 72 h
Hepatocyte [10] = assay: Drug metabolism in human hepatocytes assessed as formation of N-[6-(3-Aminopropyl)-5,11-dioxo-6,11-dihydro-5H-indeno-[1,2-c]isoquinolin-3-yl]acetamide at 50 uM after 4 hrs; type: ADME, cell-based
HEK293 = assay: Inhibition of TNFalpha-induced human NFkappaB activity in HEK293 cells at 50 uM incubated for 6 hrs followed by compound wash out measured after 5 mins by luciferase assay; type: cell-based
Liver [11] = assay: Drug metabolism in Sprague-Dawley rat assessed as 3-Amino-11-hydroxy-6-(3-hydroxypropyl)-6,11-dihydro-5Hindeno[1,2-c]isoquinolin-5-one level in liver at 40 mg/kg, po administered 3 days; type: ADME, organism-based; design: dose 40 mg/kg, route oral; conditions: in vivo, 72 h
[12] = Drug metabolism in Sprague-Dawley rat assessed as 3-Amino-11-hydroxy-6-(3-hydroxypropyl)-6,11-dihydro-5Hindeno[1,2-c]isoquinolin-5-one level in mammary gland at 40 mg/kg, po administered 3 days; type: ADME, organism-based; design: dose 40 mg/kg, route oral; conditions: in vivo, 72 h
Liver [13] = assay: Drug metabolism in Sprague-Dawley rat assessed as 6-(3-Hydroxypropyl)-3-amino-5H-indeno[1,2- c]-isoquinoline-5,11(6H)dione level in liver at 40 mg/kg, po administered 3 days; type: ADME, organism-based; design: dose 40 mg/kg, route oral; conditions: in vivo, 72 h
Hepatocyte [14] = assay: Drug metabolism in human hepatocytes assessed as formation of 3-Amino-11-hydroxy-6-(3-hydroxypropyl)-6,11-dihydro-5H-5Hindeno[1,2-c]isoquinolin-5-one at 50 uM after 4 hrs; type: ADME, cell-based
[15] = Inhibition of TNFalpha-induced human NFkappaB activity in HEK293 cells incubated for 6 hrs followed by compound wash out measured after 5 mins by luciferase assay; type: cell-based
Liver [16] = assay: Drug metabolism in Sprague-Dawley rat assessed as N-[6-(3-Hydroxypropyl)-5,11-dioxo-6,11-dihydro-5Hindeno[1,2-c]isoquinolin-3-yl]acetamide level in liver at 40 mg/kg, po administered 3 days; type: ADME, organism-based; design: dose 40 mg/kg, route oral; conditions: in vivo, 72 h
[17] = Cytotoxicity against african green monkey COS1 cells assessed as cell survival at 50 uM relative to control; type: cell-based; conditions: chlorocebus aethiops, COS-1 cells; read-out: Survival
Liver microsomes [18] = assay: Half life in human liver microsomes at 1 uM; type: ADME, Microsome
Serum [19] = assay: Drug metabolism in Sprague-Dawley rat assessed as N-[6-(3-Aminopropyl)-5,11-dioxo-6,11-dihydro-5H-indeno- [1,2-c]isoquinolin-3-yl]acetamide level in serum at 40 mg/kg, po administered 3 days; type: ADME, organism-based; design: dose 40 mg/kg, route oral; conditions: in vivo, 72 h
Liver microsomes [20] = assay: Drug metabolism in human liver microsomes assessed as formation of 6-(3-hydroxypropyl)-3-amino-5H-indeno[1,2-c]-isoquinoline-5,11(6H)-dione at 1 uM preincubated for 10 mins prior to NADPH addition measured 60 mins post NADPH addition; type: ADME, Microsome; conditions: 1 h
Hepatocyte [21] = assay: Drug metabolism in human hepatocytes assessed as formation of 6-(3-aminopropyl)-3-((2R,3R,4S,5S,6R)-3,4,5-trihydroxy-6-(hydroxymethyl)tetrahydro-2H-pyran-2-ylamino)-5H-indeno[1,2-c]isoquinoline-5,11(6H)-dione at 50 uM after 4 hrs; type: ADME, cell-based
Hepatocyte [22] = assay: Drug metabolism in human hepatocytes assessed as formation of N-[6-(3-Aminopropyl)-11-hydroxy-5-oxo-6,11-dihydro-5H-5Hindeno[ 1,2-c]isoquinolin-3-yl]acetamide at 50 uM after 4 hrs; type: ADME, cell-based
Plasma = conditions: human, 10 µM
Description: Plasma protein binding in human plasma at 10 uM

[23] = Drug metabolism in Sprague-Dawley rat assessed as parent compound level in serum at 40 mg/kg, po administered 3 days; type: ADME, organism-based; design: dose 40 mg/kg, route oral; conditions: read-out: Drug metabolism
Hepatocyte [24] = assay: Drug metabolism in human hepatocytes assessed as formation of N-[6-(3-Hydroxypropyl)-5,11-dioxo-6,11-dihydro-5H-5Hindeno[ 1,2-c]isoquinolin 3-yl]acetamide at 50 uM after 4 hrs; type: ADME, cell-based
[25] = Drug metabolism in Sprague-Dawley rat assessed as parent compound level in liver at 40 mg/kg, po administered 3 days; type: ADME, organism-based; design: dose 40 mg/kg, route oral; conditions: read-out: Drug metabolism
Serum [26] = assay: Drug metabolism in Sprague-Dawley rat assessed as N-[6-(3-Hydroxypropyl)-5,11-dioxo-6,11-dihydro-5Hindeno[1,2-c]isoquinolin-3-yl]acetamide level in serum at 40 mg/kg, po administered 3 days; type: ADME, organism-based; design: dose 40 mg/kg, route oral; conditions: in vivo, 72 h
Serum [27] = assay: Drug metabolism in Sprague-Dawley rat assessed as 6-(3-Hydroxypropyl)-3-amino-5H-indeno[1,2- c]-isoquinoline-5,11(6H)dione level in serum at 40 mg/kg, po administered 3 days; type: ADME, organism-based; design: dose 40 mg/kg, route oral; conditions: in vivo, 72 h
[28] = Drug metabolism in Sprague-Dawley rat assessed as 3-Amino-6-(3-aminopropyl)-11-hydroxy-6,11-dihydro-5Hindeno[1,2-c]isoquinolin-5-one level in mammary gland at 40 mg/kg, po administered 3 days; type: ADME, organism-based; design: dose 40 mg/kg, route oral; conditions: in vivo, 72 h
[29] = Drug metabolism in Sprague-Dawley rat assessed as parent compound level in mammary gland at 40 mg/kg, po administered 3 days; type: ADME, organism-based; design: dose 40 mg/kg, route oral; conditions: read-out: Drug metabolism
Hepatocyte [30] = assay: Drug metabolism in human hepatocytes assessed as formation of 6-(3-Hydroxypropyl)-3-amino 5H-indeno[1,2c]-isoquinoline-5,11(6H)dione at 50 uM after 4 hrs; type: ADME, cell-based
Hepatocyte [31] = assay: Drug metabolism in human hepatocytes assessed as formation of 3-Amino 6-(3-aminopropyl)-11-hydroxy-6,11-dihydro-5H-indeno[1,2-c]isoquinolin-5-one at 50 uM after 4 hrs; type: ADME, cell-based
[32] = molecular target: T1, Retinoic acid receptor RXR-alpha (Homo sapiens, UniProt P19793); assay: Agonist activity at human RXRalpha expressed in african green monkey COS1 cells assessed as induction of RXRE transcriptional activity after 12 hrs by luciferase reporter gene assay; type: functional, cell-based, COS-1
T1 sequence (P19793 whole entry): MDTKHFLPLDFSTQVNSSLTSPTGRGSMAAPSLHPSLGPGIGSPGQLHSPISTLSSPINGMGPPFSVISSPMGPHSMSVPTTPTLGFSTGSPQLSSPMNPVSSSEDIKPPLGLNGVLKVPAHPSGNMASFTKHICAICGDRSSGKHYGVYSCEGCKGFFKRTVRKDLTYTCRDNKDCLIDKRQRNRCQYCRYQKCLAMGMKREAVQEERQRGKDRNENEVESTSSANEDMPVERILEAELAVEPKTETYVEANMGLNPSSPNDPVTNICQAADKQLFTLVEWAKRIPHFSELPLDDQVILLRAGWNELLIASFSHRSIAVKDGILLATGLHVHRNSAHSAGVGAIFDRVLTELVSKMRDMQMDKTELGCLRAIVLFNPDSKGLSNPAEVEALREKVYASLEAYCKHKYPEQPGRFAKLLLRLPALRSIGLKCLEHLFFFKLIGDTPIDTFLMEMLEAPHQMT

Liver microsomes [33] = assay: Metabolic stability in human liver microsomes assessed as GSH conjugate formation at 10 uM; type: ADME, Microsome
Liver microsomes [34] = assay: Drug metabolism in human liver microsomes assessed as formation of 3-Amino 6-(3-aminopropyl)-11-hydroxy-6,11-dihydro-5H-indeno[1,2-c]isoquinolin-5-one at 1 uM preincubated for 10 mins prior to NADPH addition measured 60 mins post NADPH addition; type: ADME, Microsome; conditions: 1 h

NCCCn1c2c(c3ccc(N)cc3c1=O)C(=O)c1ccccc1-2
Drug metabolism [1]: Not Active
viability at 50 µM [2]: 109%
Drug metabolism (Liver microsomes [3]): Active
Drug metabolism [4]: Not Active
Drug metabolism [5]: Not Active
Drug metabolism (Liver [6]): Active
Drug metabolism (Serum [7]): Not Active
Drug metabolism (Serum [8]): Not Active
Drug metabolism (Liver [9]): Active
Drug metabolism (Hepatocyte [10]): Active
inhibition (HEK293): 84.9%
Drug metabolism (Liver [11]): Active
Drug metabolism [12]: Not Active
Drug metabolism (Liver [13]): Active
Drug metabolism (Hepatocyte [14]): Active
IC50 [15]: 26.3 µM
Drug metabolism (Liver [16]): Active
viability at 50 µM [17]: 58.6%
t1/2 (Liver microsomes [18]): 2.17 h
Drug metabolism (Serum [19]): Active
Drug metabolism (Liver microsomes [20]): Active
Drug metabolism (Hepatocyte [21]): Active
Drug metabolism (Hepatocyte [22]): Active
PPB (Plasma): 75%
concentration at 72 h [23]: 800 ng/mL
Drug metabolism (Hepatocyte [24]): Active
concentration at 72 h [25]: 4300 ng/g
Drug metabolism (Serum [26]): Not Active
Drug metabolism (Serum [27]): Not Active
Drug metabolism [28]: Not Active
concentration at 72 h [29]: 300 ng/g
Drug metabolism (Hepatocyte [30]): Active
Drug metabolism (Hepatocyte [31]): Active
EC50 [32]: 3.37 µM
Stability (Liver microsomes [33]): Stable
Drug metabolism (Liver microsomes [34]): Active
